The values below come from patent US8476298B2 (Exelixis, Inc., priority 2003, dated 2013).

Like-named read-outs stand apart in the source and are kept apart here. Bounds are passed on as bounds.

One test deals with c-Kit kinase (Homo sapiens, UniProt P10721). As to the kind of experiment: c-Kit AlphaScreen kinase assay.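 Further: c-Kit kinase phosphorylating biotinylated poly(Glu,Tyr), ATP near its KM, 1 h reaction at ambient temperature, AlphaScreen chemiluminescence with streptavidin donor and anti-phosphotyrosine acceptor beads, 10-point inhibitor titration.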 Format: biochemical. A general note: Alpha assays give light when donor and acceptor beads are brought close together.
In test [1] the target is T1, c-Met (baculovirus expressed human c-Met kinase domain P948-S1343) (Homo sapiens, UniProt P08581).
T1 construct: human c-Met kinase domain P948-S1343; host or cells: baculovirus expression
Description: c-Met Luciferase-Coupled Chemiluminescent Kinase assay (LCCA).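 Further: kinase activity read as percent ATP left after reaction, by luciferase-luciferin chemiluminescence, with 1 µM ATP and 1 µM poly-EY substrate, 2 h at ambient temperature, 10-point dose-response.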 The class given is biochemical.

Test [2] has as its target T2, Flt-3 (baculovirus expressed human Flt-3 kinase domain R571-S993) (Homo sapiens, UniProt P36888).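 Further: Luciferase-coupled chemiluminescent kinase assay, activity read as percent ATP left after a 3 h reaction at room temperature, ATP near KM, 10-point dose-response.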
T2 construct: human Flt-3 kinase domain R571-S993; host or cells: baculovirus expression
T2 sequence (P36888 571-993): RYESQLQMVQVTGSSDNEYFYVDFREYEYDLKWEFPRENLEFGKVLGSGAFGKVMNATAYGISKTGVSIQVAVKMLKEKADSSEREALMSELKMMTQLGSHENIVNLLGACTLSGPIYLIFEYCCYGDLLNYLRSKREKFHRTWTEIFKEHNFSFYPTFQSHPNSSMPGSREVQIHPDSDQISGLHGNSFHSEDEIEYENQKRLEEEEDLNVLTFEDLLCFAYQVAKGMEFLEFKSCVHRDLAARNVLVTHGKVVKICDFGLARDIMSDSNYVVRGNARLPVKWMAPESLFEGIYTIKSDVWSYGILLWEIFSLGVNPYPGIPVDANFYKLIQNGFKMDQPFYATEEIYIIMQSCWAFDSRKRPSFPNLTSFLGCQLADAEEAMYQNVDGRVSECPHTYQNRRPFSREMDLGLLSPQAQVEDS
As to the kind of experiment: biochemical. Conditions: read-out: flt3 IC50.
Description: (§1) Kinase activity and compound inhibition are investigated using one or more of the three assay formats described below. The ATP concentrations for each assay are selected to be close to the Michaelis-Menten constant (KM) for each individual kinase. Dose-response experiments are performed at 10 different inhibitor concentrations in a 384-well plate format.
Biochemical activity for flt-3 was assessed using a Luciferase-Coupled Chemiluminescent Kinase assay (LCCA) format. Kinase activity was measured as the percent ATP remaining following the kinase reaction. Remaining ATP was detected by luciferase-luciferin-coupled chemiluminescence. […] The mixture is incubated at ambient temperature for 3 hours after which 20 uL luciferase-luciferin mix is added and the chemiluminescent signal read using a Wallac Victor^2 reader.

In test [3] the target is T3, KDR (baculovirus expressed human KDR kinase domain D807-V1356) (Homo sapiens, UniProt P35968).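 Further: Luciferase-coupled chemiluminescent kinase assay, activity read as percent ATP left after 4 h reaction at ambient temperature, ATP near KM, 10-point dose-response in 384-well plates.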
T3 construct: human KDR kinase domain D807-V1356; host or cells: baculovirus expression
As to the kind of experiment: biochemical.

Where [4] appears, read: Table 4, inhibition as IC50 class.

T3 sequence (P35968 807-1356): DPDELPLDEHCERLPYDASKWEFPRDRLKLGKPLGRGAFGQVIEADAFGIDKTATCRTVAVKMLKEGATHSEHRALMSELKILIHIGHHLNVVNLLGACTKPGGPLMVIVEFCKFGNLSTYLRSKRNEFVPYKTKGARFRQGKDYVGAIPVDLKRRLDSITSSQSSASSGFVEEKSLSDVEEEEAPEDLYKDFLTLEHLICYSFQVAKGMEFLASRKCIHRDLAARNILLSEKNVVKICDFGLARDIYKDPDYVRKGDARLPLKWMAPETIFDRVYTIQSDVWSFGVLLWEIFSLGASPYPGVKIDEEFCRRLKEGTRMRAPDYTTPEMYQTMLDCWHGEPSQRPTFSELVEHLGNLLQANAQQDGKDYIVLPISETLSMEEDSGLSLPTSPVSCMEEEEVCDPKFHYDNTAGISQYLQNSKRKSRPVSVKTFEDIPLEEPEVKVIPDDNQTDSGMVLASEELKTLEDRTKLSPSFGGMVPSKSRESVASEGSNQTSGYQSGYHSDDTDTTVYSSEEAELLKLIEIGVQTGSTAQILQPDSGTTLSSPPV
T1 sequence (P08581 1011-1343 limits assumed): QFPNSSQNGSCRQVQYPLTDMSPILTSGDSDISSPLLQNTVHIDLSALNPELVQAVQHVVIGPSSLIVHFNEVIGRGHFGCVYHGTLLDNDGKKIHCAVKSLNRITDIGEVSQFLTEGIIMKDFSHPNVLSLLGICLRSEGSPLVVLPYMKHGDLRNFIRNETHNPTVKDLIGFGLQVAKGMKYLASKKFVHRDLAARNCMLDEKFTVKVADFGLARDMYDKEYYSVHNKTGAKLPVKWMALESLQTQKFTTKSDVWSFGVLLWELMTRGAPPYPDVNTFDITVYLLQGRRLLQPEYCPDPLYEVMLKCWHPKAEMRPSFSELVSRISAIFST
Sequence of c-Kit kinase (P10721 26-976): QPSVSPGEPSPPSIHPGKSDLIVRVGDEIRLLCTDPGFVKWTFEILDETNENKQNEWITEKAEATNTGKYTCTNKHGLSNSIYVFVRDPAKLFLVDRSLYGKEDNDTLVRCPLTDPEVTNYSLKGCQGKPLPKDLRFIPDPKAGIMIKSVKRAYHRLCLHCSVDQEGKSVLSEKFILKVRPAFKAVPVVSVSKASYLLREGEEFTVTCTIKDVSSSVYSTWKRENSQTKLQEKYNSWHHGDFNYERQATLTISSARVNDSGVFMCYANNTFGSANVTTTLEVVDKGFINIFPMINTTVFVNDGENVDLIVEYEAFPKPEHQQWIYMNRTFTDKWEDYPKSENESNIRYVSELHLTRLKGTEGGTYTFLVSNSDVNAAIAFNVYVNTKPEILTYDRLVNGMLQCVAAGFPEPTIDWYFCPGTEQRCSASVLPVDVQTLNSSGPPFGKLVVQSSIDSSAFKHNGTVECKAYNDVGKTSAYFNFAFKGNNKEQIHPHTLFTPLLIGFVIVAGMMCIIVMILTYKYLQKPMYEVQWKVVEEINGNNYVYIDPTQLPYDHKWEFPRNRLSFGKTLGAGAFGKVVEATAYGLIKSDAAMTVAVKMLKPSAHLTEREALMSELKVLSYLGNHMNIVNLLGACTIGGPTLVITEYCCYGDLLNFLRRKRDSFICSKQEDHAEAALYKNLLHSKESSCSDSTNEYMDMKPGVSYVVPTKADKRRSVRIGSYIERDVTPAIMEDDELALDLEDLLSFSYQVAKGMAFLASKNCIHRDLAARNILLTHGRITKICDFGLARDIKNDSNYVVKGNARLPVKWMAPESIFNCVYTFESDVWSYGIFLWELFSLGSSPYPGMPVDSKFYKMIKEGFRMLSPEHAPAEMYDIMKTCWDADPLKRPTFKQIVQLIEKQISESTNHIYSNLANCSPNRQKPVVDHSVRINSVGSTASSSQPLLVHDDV
Description for c-Kit kinase: as §1
AlphaScreen™ (Perkin Elmer) technology is a proximity assay employing microparticles. Singlet oxygen derived from a donor bead following laser excitation results in chemiluminescence when in proximity (100 Å) to an acceptor bead due to biomolecular interactions.
c-Kit biochemical activity was assessed using AlphaScreen™ (Perkin Elmer) technology, described above. Test compounds, ATP, biotinylated poly(Glu, Tyr) and c-Kit kinase were combined in a volume of 20 μL in a 384-well white, medium binding microtiter plate (Greiner). Reaction mixtures were incubated for 1 hr at ambient temperature. […] After 16 hr incubation at ambient temperature plates were read using an AlphaQuest reader (Perkin Elmer).

As a reminder, the IC50 is the midpoint of a concentration-inhibition curve. As to `COc1cc2nccc(Oc3ccc(NC(=O)C(=O)NCc4ccccc4)cc3F)c2cc1OC` [Entry 12], the half-maximal inhibitory concentration (IC50) against c-Kit kinase lay within 50 to 500 nM.
In the case of `COc1cc2nccc(Oc3ccc(NC(=O)C4(C(=O)NCc5ccc(F)cc5)CC4)cc3)c2cc1OC` [Example 392, N-(4-{[6,7-bis(methyloxy)quinolin-4-yl]oxy}phenyl)-N′-[(4-fluorophenyl)methyl]cyclopropane-1,1-dicarboxamide], the results for the 50% inhibitory concentration (IC50) in test [1], in test [2] and in test [3] were 50 to 500 nM, under 50 nM and 50 to 500 nM, respectively.
Take `CCN(CC)CCOc1cc2nccc(Oc3ccc(NC(=O)C4(C(=O)Nc5ccc(F)cc5)CC4(C)C)cc3F)c2cc1OC` (stereo not shown) [Example 375, N-(4-{[7-{[2-(diethylamino)ethyl]oxy}-6-(methyloxy)quinolin-4-yl]oxy}-3-fluorophenyl)-N′-(4-fluorophenyl)-2,2-dimethylcyclopropane-1,1-dicarboxamide]: the IC50 in test [1] was under 50 nM; in test [2] it was 500 to 5000 nM; in test [3], under 50 nM.
`CCN(CC)CCCOc1cc2ncnc(Oc3ccc(NC(=O)C4(C(=O)Nc5ccc(F)cc5)CC4)cc3F)c2cc1OC` [Example 349, N-(4-{[7-{[3-(diethylamino)propyl]oxy}-6-(methyloxy)quinazolin-4-yl]oxy}-3-fluorophenyl)-N′-(4-fluorophenyl)cyclopropane-1,1-dicarboxamide]: the IC50 in test [1], in test [2] and in test [3] was under 50 nM throughout.
On to `COc1cc2c(Oc3ccc(NC(=O)[C@]4(C(=O)Nc5ccc(F)cc5)C[C@@H]4C)cc3F)ccnc2cc1OCCCN1CCNCC1` [Example 364, (1R,2S)-N-[3-fluoro-4-({6-(methyloxy)-7-[(3-piperazin-1-ylpropyl)oxy]quinolin-4-yl}oxy)phenyl]-N′-(4-fluorophenyl)-2-methylcyclopropane-1,1-dicarboxamide], for which the IC50 in test [1], in test [2] and in test [3] was under 50 nM in each case.
In the case of `COc1cc2c(Oc3ccc(NC(=O)C4(C(=O)Nc5ccc(F)cc5)CCC4)cc3F)ncnc2cc1OCCCN1CCOCC1` [Example 369, N-[3-fluoro-4-({6-(methyloxy)-7-[(3-morpholin-4-ylpropyl)oxy]quinazolin-4-yl}oxy)phenyl]-N′-(4-fluorophenyl)cyclobutane-1,1-dicarboxamide], the IC50 in test [1] is 50 to 500 nM; in test [2] it was 50 to 500 nM; in test [3], under 50 nM.
For `COc1cc2nccc(Oc3ccc(NC(=O)C4(C(=O)Nc5ccc(F)cc5)CN(Cc5ccccc5)C4)cc3)c2cc1OC` [Example 352, N-(4-{[6,7-bis(methyloxy)quinolin-4-yl]oxy}phenyl)-N′-(4-fluorophenyl)-1-(phenylmethyl)azetidine-3,3-dicarboxamide], the half-inhibitory concentration (IC50) in test [1] was under 50 nM; in test [2], 500 to 5000 nM; in test [3], 500 to 5000 nM.
As for `COc1cc2c(Oc3ccc(NC(=O)C4(C(=O)Nc5ccc(F)cc5)CC4)cc3F)ccnc2cc1OCCCN1CCN(C(C)=O)CC1` [Example 350, N-(4-{[7-{[3-(4-acetylpiperazin-1-yl)propyl]oxy}-6-(methyloxy)quinolin-4-yl]oxy}-3-fluorophenyl)-N′-(4-fluorophenyl)cyclopropane-1,1-dicarboxamide], the half-inhibitory concentration (IC50) in test [1], in test [2] and in test [3] was under 50 nM in each case.
As to `CCN(CC)CCCOc1cc2c(Oc3ccc(NC(=O)C4(C(=O)Nc5ccc(F)cc5)CC4)cc3F)ccnc2cc1OC` [Example 344, N-(4-{[6-{[3-(diethylamino)propyl]oxy}-7-(methyloxy)quinolin-4-yl]oxy}-3-fluorophenyl)-N′-(4-fluorophenyl)cyclopropane-1,1-dicarboxamide], the IC50 in test [1], in test [2] and in test [3] was under 50 nM in each case.
For the compound `COc1cc2c(Oc3ccc(NC(=O)[C@]4(C(=O)Nc5ccc(F)cc5)C[C@H]4C)cc3F)ccnc2cc1OCCCN1CCN(C(=O)OC(C)(C)C)CC1` [Example 351, 1,1-dimethylethyl 4-(3-{[4-[(2-fluoro-4-{[((1R,2R)-1-{[(4-fluorophenyl)amino]carbonyl}-2-methylcyclopropyl)carbonyl]amino}phenyl)oxy]-6-(methyloxy)quinolin-7-yl]oxy}propyl)piperazine-1-carboxylate], the IC50 in test [1] is under 50 nM; in test [2], 50 to 500 nM; in test [3], under 50 nM.
As to `COc1cc2c(Oc3ccc(NC(=O)[C@@]4(C(=O)Nc5ccc(F)cc5)[C@H](C)[C@@H]4C)cc3F)ncnc2cc1OCCCN1CCOCC1` [Example 367, (1r,2R,3S)-N-[3-fluoro-4-({6-(methyloxy)-7-[(3-morpholin-4-ylpropyl)oxy]quinazolin-4-yl}oxy)phenyl]-N′-(4-fluorophenyl)-2,3-dimethylcyclopropane-1,1-dicarboxamide], the IC50 in test [1] is 50 to 500 nM; in test [2], 50 to 500 nM; in test [3] it was under 50 nM.
Consider `CCN(CC)CCCOc1cc2ncnc(Oc3ccc(NC(=O)[C@]4(C(=O)Nc5ccc(F)cc5)C[C@H]4C)cc3F)c2cc1OC` [Example 386, (1R,2R)-N-(4-{[7-{[3-(diethylamino)propyl]oxy}-6-(methyloxy)quinazolin-4-yl]oxy}-3-fluorophenyl)-N′-(4-fluorophenyl)-2-methylcyclopropane-1,1-dicarboxamide], for which the concentration for half-maximal inhibition (IC50) in test [1], in test [2] and in test [3] was under 50 nM in each case.
For `CCN(CC)CCCOc1cc2ncnc(Oc3ccc(NC(=O)C4(C(=O)Nc5ccc(F)cc5)[C@H](C)[C@H]4C)cc3F)c2cc1OC` (stereo partly drawn) [Example 389, (2R,3R)-N-(4-{[7-{[3-(diethylamino)propyl]oxy}-6-(methyloxy)quinazolin-4-yl]oxy}-3-fluorophenyl)-N′-(4-fluorophenyl)-2,3-dimethylcyclopropane-1,1-dicarboxamide], the IC50 in test [1] was under 50 nM; in test [2] it was 50 to 500 nM; in test [3] it was under 50 nM.
As for `COc1cc2nccc(Oc3ccc(NC(=O)C4(C(=O)Nc5ccccc5CN5CCCCC5)CC4)cc3)c2cc1OC` [Example 394, N-(4-{[6,7-bis(methyloxy)quinolin-4-yl]oxy}phenyl)-N′-[2-(piperidin-1-ylmethyl)phenyl]cyclopropane-1,1-dicarboxamide], the results for the half-maximal inhibitory concentration (IC50) in test [1], in test [2] and in test [3] were 50 to 500 nM, 50 to 500 nM and over 5000 nM, respectively.
Regarding `CCN(CC)CCCOc1cc2nccc(Oc3ccc(NC(=O)[C@]4(C(=O)Nc5ccc(F)cc5)C[C@H]4C)cc3F)c2cc1OC` [Example 359, (1R,2R)-N-(4-{[7-{[3-(diethylamino)propyl]oxy}-6-(methyloxy)quinolin-4-yl]oxy}-3-fluorophenyl)-N′-(4-fluorophenyl)-2-methylcyclopropane-1,1-dicarboxamide], the half-inhibitory concentration (IC50) in test [1], in test [2] and in test [3] was under 50 nM throughout.
On to `CCN(CC)CCCOc1cc2nccc(Oc3ccc(NC(=O)[C@]4(C(=O)Nc5ccc(F)cc5)C[C@@H]4C)cc3F)c2cc1OC` [Example 361, (1R,2S)-N-(4-{[7-{[3-(diethylamino)propyl]oxy}-6-(methyloxy)quinolin-4-yl]oxy}-3-fluorophenyl)-N′-(4-fluorophenyl)-2-methylcyclopropane-1,1-dicarboxamide], for which the 50% inhibitory concentration (IC50) in test [1], in test [2] and in test [3] was under 50 nM throughout.
On to `COc1cc2nccc(Oc3ccc(NC(=O)C4(C(=O)NCCN5CCOCC5)CC4)cc3)c2cc1OC` [Example 393, N-(4-{[6,7-bis(methyloxy)quinolin-4-yl]oxy}phenyl)-N′-(2-morpholin-4-ylethyl)cyclopropane-1,1-dicarboxamide], for which the half-maximal inhibitory concentration (IC50) in test [1] was 500 to 5000 nM; in test [2], 50 to 500 nM; in test [3], over 5000 nM.
Taken in the same sequence, the figures for `COc1cc2c(Oc3ccc(NC(=O)[C@]4(C(=O)Nc5ccc(F)cc5)C[C@H]4C)cc3F)ccnc2cc1OCCCN1CCNCC1` [Example 356, (1R,2R)-N-[3-fluoro-4-({6-(methyloxy)-7-[(3-piperazin-1-ylpropyl)oxy]quinolin-4-yl}oxy)phenyl]-N′-(4-fluorophenyl)-2-methylcyclopropane-1,1-dicarboxamide] were under 50 nM, under 50 nM and under 50 nM.
Turning to `COc1cc(CNC(=O)C(=O)Nc2ccc(Oc3ccnc4cc(OCC5CCNCC5)c(OC)cc34)c(F)c2)cc(OC)c1` [Example 269, N-{[3,5-bis(methyloxy)phenyl]methyl}-N′-[3-fluoro-4-({6-(methyloxy)-7-[(piperidin-4-ylmethyl)oxy]quinolin-4-yl}oxy)phenyl]ethanediamide], the IC50 in test [1] (setting [4]), in test [2] (setting [4]) and in test [3] (setting [4]) was under 50 nM throughout.
As to `CCN(CC)CCOc1cc2nccc(Oc3ccc(NC(=O)[C@]4(C(=O)Nc5ccc(F)cc5)C[C@H]4C)cc3F)c2cc1OC` [Example 360, (1R,2R)-N-(4-{[7-{[2-(diethylamino)ethyl]oxy}-6-(methyloxy)quinolin-4-yl]oxy}-3-fluorophenyl)-N′-(4-fluorophenyl)-2-methylcyclopropane-1,1-dicarboxamide], the IC50 in test [1], in test [2] and in test [3] was under 50 nM throughout.
